{"source": "patent US20260150871A1", "about": "“TASTE MODIFYING COMPOSITIONS AND USES THEREOF” (Firmenich Incorporated, priority 2022, published 2026)", "assay_type_in_all_cases": "in vivo", "key": {"[1]": {"test_system": "Panelists", "assay": "MSG reduction with potato crisp: panel sensory rating", "details": "Sample S1: 5 ppm TM1 on potato crisp, 2 wt % flavoring (sour cream and onion), 0.03 wt % MSG, 0.008 wt % purinic ribonucleotide, mean, scale of 0 to 10", "experimental": "A test sample and a comparative sample were prepared. The comparative (sample C) was a standard potato crisp having 2 wt % flavoring (sour cream and onion), 0.03 wt % MSG, and 0.008 wt % purinic ribonucleotide. This reflects a 75% reduction of the standard amount of MSG used in such products (0.12 wt %). The test sample contained flavoring, MSG, and purinic ribonucleotide in the same amounts as the comparative sample plus 5 ppm of TM1 (sample S1). Panelists were asked to rate the intensity of certain sensory features of the samples on a scale of 0 to 10. Higher numbers indicate greater intensity."}, "[2]": {"test_system": "Panelists", "assay": "Umami enhancement of MSG: panel sensory rating of aqueous sodium chloride/MSG samples", "details": "mean, scale of 0 to 10; for Lasting Umami Intensity: Sample C 3.1; for Saltiness Intensity: Sample C 3.6; for Umami Intensity: Sample C 4.0", "experimental": "A series of test samples and a comparative sample were prepared. The comparative sample (C) contained 0.3 wt % sodium chloride and 0.05 wt % MSG. Two test samples were prepared. Each test sample contained sodium chloride and MSG in the same amounts as the comparative sample plus 2 ppm of TM1 (sample S1) or 5 ppm of TM1 (sample S2). Panelists were asked to rate the intensity of certain sensory features of the samples on a scale of 0 to 10. Higher numbers indicate greater intensity."}, "[3]": {"test_system": "Panelists", "assay": "Flavor modification of chicken broth: panel sensory rating", "details": "0.7 wt % sodium chloride, 0.04 wt % MSG, mean, scale of 0 to 10; for Lasting Umami Intensity: Sample C 3.1; for Umami Intensity: Sample C 4.3; for White Meat Intensity: Sample C 4.8; for Saltiness Intensity: Sample C 4.9; for Chicken Flavor Intensity: Sample C 5.3", "experimental": "A series of test samples and a comparative sample were prepared. The comparative sample (C) was a standard reconstituted chicken broth solution containing 0.7 wt % sodium chloride and 0.04 wt % MSG. Two test samples were prepared. Each test sample contained chicken broth, sodium chloride, and MSG in the same amounts as the comparative sample plus 3 ppm of TM1 (sample S1) or 5 ppm of TM1 (sample S2). Panelists were asked to rate the intensity of certain sensory features of the samples on a scale of 0 to 10. Higher numbers indicate greater intensity."}, "[4]": {"test_system": "Panelists", "assay": "MSG reduction with soy-based vegan chicken nugget: panel sensory rating", "details": "Sample S1: 5 ppm TM1 in soy-based vegan chicken nugget, 1.68 wt % flavoring (chicken), 0.4 wt % MSG, 0.03 wt % purinic ribonucleotide, mean, scale of 0 to 10", "experimental": "A test sample and a comparative sample were prepared. The comparative (sample C) was a standard soy-based vegan chicken nugget having 1.68 wt % flavoring (chicken), 0.4 wt % MSG, and 0.03 wt % purinic ribonucleotide. The test sample contained flavoring, MSG, and purinic ribonucleotide in the same amounts as the comparative sample plus 5 ppm of TM1 (sample S1). Panelists were asked to rate the intensity of certain sensory features of the samples on a scale of 0 to 10. Higher numbers indicate greater intensity."}, "[5]": {"details": "Sample C 2.1, * significant vs C"}, "[6]": {"details": "Sample S1: 2 ppm TM1 + 0.3 wt % sodium chloride + 0.05 wt % MSG"}, "[7]": {"details": "Sample S2: 5 ppm TM1 + 0.3 wt % sodium chloride + 0.05 wt % MSG, * significant vs C"}, "[8]": {"details": "Sample S1: 3 ppm TM1 in chicken broth, * significant vs C"}, "[9]": {"details": "Sample S2: 5 ppm TM1 in chicken broth, * significant vs C"}, "[10]": {"details": "Sample S2: 5 ppm TM1 in chicken broth"}}}
{"smiles": "C/C(=C\\CO)C(=O)NCCCCNC(=O)/C=C/c1ccccc1", "note": "[TM1, (E)-N-(4-cinnamamidobutyl)-4-hydroxy-2-methylbut-2-enamide]", "values": [{"measurement": "Lasting Umami Intensity", "setting": "[1]; [5]", "result": "2.8*"}, {"measurement": "Sour Intensity", "setting": "[1]; [5]", "result": "2.9*"}, {"measurement": "Saltiness Intensity", "setting": "[1]; Sample C 2.9", "result": 3.1}, {"measurement": "Umami Intensity", "setting": "[1]; Sample C 3.0, * significant vs C", "result": "3.6*"}, {"measurement": "Lasting Umami Intensity", "setting": "[2]; Sample S1: 2 ppm TM1 + 0.3 wt % sodium chloride + 0.05 wt % MSG, * significant vs C", "result": "4.2*"}, {"measurement": "Saltiness Intensity", "setting": "[2]; [6]", "result": 3.8}, {"measurement": "Umami Intensity", "setting": "[2]; [6]", "result": 4.8}, {"measurement": "Lasting Umami Intensity", "setting": "[2]; [7]", "result": "5.4*"}, {"measurement": "Saltiness Intensity", "setting": "[2]; Sample S2: 5 ppm TM1 + 0.3 wt % sodium chloride + 0.05 wt % MSG", "result": 3.8}, {"measurement": "Umami Intensity", "setting": "[2]; [7]", "result": "6.0*"}, {"measurement": "Lasting Umami Intensity", "setting": "[3]; [8]", "result": "4.2*"}, {"measurement": "Umami Intensity", "setting": "[3]; [8]", "result": "5.8*"}, {"measurement": "White Meat Intensity", "setting": "[3]; [8]", "result": "5.8*"}, {"measurement": "Saltiness Intensity", "setting": "[3]; Sample S1: 3 ppm TM1 in chicken broth", "result": 5.2}, {"measurement": "Chicken Flavor Intensity", "setting": "[3]; [8]", "result": "6.0*"}, {"measurement": "Lasting Umami Intensity", "setting": "[3]; [9]", "result": "5.4*"}, {"measurement": "Umami Intensity", "setting": "[3]; [9]", "result": "6.2*"}, {"measurement": "White Meat Intensity", "setting": "[3]; [10]", "result": 4.8}, {"measurement": "Saltiness Intensity", "setting": "[3]; [10]", "result": 4.8}, {"measurement": "Chicken Flavor Intensity", "setting": "[3]; [10]", "result": 5.8}, {"measurement": "Saltiness Intensity", "setting": "[4]; Sample C 4.6", "result": 4.4}, {"measurement": "Umami Intensity", "setting": "[4]; Sample C 5.1, * significant vs C", "result": "5.8*"}]}
